Toxic doses and inconclusive results are not listed. How the source made its calls: active means survival T/C of 150% or more; inactive means T/C below 125% in these data.
Test system: CD2F1 mice, L1210 leukemia ip, survival T/C
Assay: NCI In Vivo Anticancer Drug Screen. Data for tumor model L1210 Leukemia (intraperitoneal) in CD2F1 (CDF1) mice
Settings: endpoint: mean survival time, higher = longer survival
Procedure, shortened: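 Tumor-bearing mice (transplanted tumor) were split into treated and vehicle control groups, and the measured endpoint of each treated group was divided by that of its vehicle controls.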

[1] = dose: 100.0 mg/kg/injection, schedule: Q01DX009 (ip), vehicle: saline
[2] = dose: 100.0 mg/kg/injection, schedule: Q04DX003 (ip), vehicle: saline with Tween-80
[3] = dose: 50.0 mg/kg/injection, schedule: Q01DX009 (ip), vehicle: saline with Tween-80
[4] = dose: 100.0 mg/kg/injection, schedule: Q01DX009 (ip), vehicle: saline with Tween-80

Measured: T/C

CC(/C=N/N(C)C)=N/[N+](C)(C)C
inactive: dose: 50.0 mg/kg/injection, schedule: Q01DX009 (ip), vehicle: saline 101 % of control | [1] 101 % of control

CC(=O)[C@]1(O)Cc2c(O)c3c(c(O)c2[C@@H](OC2CC(N)C(O)C(C)O2)C1)C(=O)c1c(O)cccc1C3=O (stereo not given in full)
inactive: dose: 0.05 mg/kg/injection, schedule: Q01DX009 (ip), vehicle: saline 118 % of control | dose: 0.08 mg/kg/injection, schedule: Q01DX009 (ip), vehicle: saline 120 % of control | dose: 0.08 mg/kg/injection, schedule: Q04DX003 (ip), vehicle: saline 107 % of control | dose: 0.14 mg/kg/injection, schedule: Q04DX003 (ip), vehicle: saline 109 % of control | dose: 0.23 mg/kg/injection, schedule: Q04DX003 (ip), vehicle: saline 123 % of control | dose: 0.39 mg/kg/injection, schedule: Q01DX009 (ip), vehicle: saline 113 % of control | dose: 0.65 mg/kg/injection, schedule: Q01DX009 (ip), vehicle: saline 88 % of control

CCCC1(CCC)c2ccccc2C(Cl)(CCl)c2ccccc21
inactive: dose: 12.5 mg/kg/injection, schedule: Q01DX009 (ip), vehicle: other 88 % of control | dose: 25.0 mg/kg/injection, schedule: Q01DX009 (ip), vehicle: other 94 % of control | dose: 50.0 mg/kg/injection, schedule: Q01DX009 (ip), vehicle: other 92 % of control | dose: 100.0 mg/kg/injection, schedule: Q01DX009 (ip), vehicle: other 94 % of control | dose: 200.0 mg/kg/injection, schedule: Q01DX009 (ip), vehicle: other 86 % of control

O=c1ccnc(C(F)(F)F)[nH]1
inactive: [1] 101 % of control | dose: 200.0 mg/kg/injection, schedule: Q01DX009 (ip), vehicle: saline 95 % of control

C[n+]1cccc(C(=O)N/N=C/c2ccco2)c1
inactive: dose: 100.0 mg/kg/injection, schedule: Q04DX003 (ip), vehicle: saline 105 % of control | dose: 200.0 mg/kg/injection, schedule: Q04DX003 (ip), vehicle: saline 98 % of control | dose: 400.0 mg/kg/injection, schedule: Q04DX003 (ip), vehicle: saline 104 % of control

CC(=O)OC1C2CCC(C2)C1C (stereo not given)
inactive: [2] 95 % of control | dose: 200.0 mg/kg/injection, schedule: Q04DX003 (ip), vehicle: saline with Tween-80 92 % of control | dose: 400.0 mg/kg/injection, schedule: Q04DX003 (ip), vehicle: saline with Tween-80 92 % of control

Oc1ccccc1/C=N/c1nc2ccc(Cl)cc2s1.Oc1ccccc1/C=N/c1nc2ccc(Cl)cc2s1.[Zn]
inactive: dose: 25.0 mg/kg/injection, schedule: Q01DX001 (ip), vehicle: saline 96 % of control | dose: 50.0 mg/kg/injection, schedule: Q01DX001 (ip), vehicle: saline 91 % of control | dose: 100.0 mg/kg/injection, schedule: Q01DX001 (ip), vehicle: saline 87 % of control

O=C1C(Br)=C(c2ccccc2)C(=O)C(Br)=C1c1ccccc1
inactive: dose: 100.0 mg/kg/injection, schedule: Q04DX002 (ip), vehicle: Klucel (hydroxypropylcellulose) (HPC) 90 % of control | dose: 200.0 mg/kg/injection, schedule: Q04DX002 (ip), vehicle: Klucel (hydroxypropylcellulose) (HPC) 86 % of control | dose: 400.0 mg/kg/injection, schedule: Q04DX002 (ip), vehicle: Klucel (hydroxypropylcellulose) (HPC) 90 % of control

N#CC(c1cccnc1)N1CCOCC1 (stereo not given)
inactive: dose: 25.0 mg/kg/injection, schedule: Q01DX009 (ip), vehicle: saline with Tween-80 98 % of control | [3] 103 % of control

O=C(O)CC1C=CCC1 (stereo not given)
inactive: dose: 6.25 mg/kg/injection, schedule: Q04DX003 (ip), vehicle: saline 102 % of control | dose: 12.5 mg/kg/injection, schedule: Q04DX003 (ip), vehicle: saline 97 % of control | dose: 25.0 mg/kg/injection, schedule: Q04DX003 (ip), vehicle: saline 97 % of control | [2] 98 % of control

COc1cc(OC)c(NC(=O)Oc2c(Cl)cccc2Cl)cc1Cl
inactive: [3] 94 % of control | [4] 97 % of control

O=C1OC(OC(=O)c2ccccc2)C(Nc2ccccc2)=C1Br (stereo not given)
inactive: [4] 101 % of control | dose: 200.0 mg/kg/injection, schedule: Q01DX009 (ip), vehicle: saline with Tween-80 101 % of control | dose: 400.0 mg/kg/injection, schedule: Q01DX009 (ip), vehicle: saline with Tween-80 97 % of control

CCCCOC(=O)c1ccc(OC(=O)NCCC)cc1
inactive: dose: 50.0 mg/kg/injection, schedule: Q01DX009 (ip), vehicle: Klucel (hydroxypropylcellulose) (HPC) 102 % of control | dose: 100.0 mg/kg/injection, schedule: Q01DX009 (ip), vehicle: Klucel (hydroxypropylcellulose) (HPC) 108 % of control | dose: 200.0 mg/kg/injection, schedule: Q01DX009 (ip), vehicle: Klucel (hydroxypropylcellulose) (HPC) 100 % of control

CCN(CC)CC(C)Nc1c2ccc(Cl)cc2nc2ccc(OC)cc12 (stereo not given)
inactive: dose: 100.0 mg/kg/injection, schedule: Q04DX002 (ip), vehicle: saline with Tween-80 94 % of control | dose: 200.0 mg/kg/injection, schedule: Q04DX002 (ip), vehicle: saline with Tween-80 91 % of control | dose: 400.0 mg/kg/injection, schedule: Q04DX002 (ip), vehicle: saline with Tween-80 97 % of control

From PubChem BioAssay AID256 (DTP/NCI, 2004)
